In patent publication US20070225171A1 (priority 2001, published 2007):
Where two headings read alike, the source gives them in different places.

Legend:
[1] = test system: Plants expressing the dioxygenase encoded by the tfdA gene; assay: Herbicide tolerance of plants expressing the tfdA dioxygenase; assay type: in vivo; conditions: at lower levels of herbicide than for 2,4-D; data not shown
From the text: See, e.g., Llewellyn and Last, in Herbicide-Resistant Crops Chapter 10, pages 159-174 (Duke, ed., CRC Lewis Publishers 1996). Preferably, additional bacterial codons of the tfdA coding sequence are replaced by plant-preferred codons to obtain better expression of the encoded dioxygenase. […] See, e.g., Llewellyn and Last, in Herbicide-Resistant Crops Chapter 10, pages 159-174 (Duke, ed., CRC Lewis Publishers 1996) and U.S. Pat. Nos. 6,100,446 and 6,153,401.

[2] = test system: Transgenic cotton plants (transformed with tfdA gene); assay: Seed cotton yield after spraying 2,4-D amine on transgenic cotton; assay type: in vivo; conditions: for SEED COTTON YIELD: herbicide rate 1 lb/acre, average of 4 replications
Procedure: Transgenic cotton plants (transformed as described in Bayley et al., Theor. Appl. Genet., 83:645-649 (1992)) were grown from transgenic seed obtained from USDA, Lubbock, Tex. The cotton plants were sprayed with 2,4-D amine at 1 lb of active ingredient per acre.

[3] = test system: Plants expressing the dioxygenase encoded by the tfdA gene; conditions: reported in Llewellyn and Last 1996 and U.S. Pat. Nos. 6,100,446 and 6,153,401; cited from earlier work

O=C(O)CCCOc1ccc(Cl)cc1Cl [2,4-DB, 2,4-dichlorophenoxybutyric acid]
tolerance of plants to the herbicide [1]: tolerant

CNC.O=C(O)COc1ccc(Cl)cc1Cl [2,4-D amine]
effect on yield of cotton ([2]; 1 lb of active ingredient per acre): significantly increased the yield of cotton | PERCENT INCREASE, AVERAGE ([2]; average of the seven cotton lines, 1 lb/acre vs rate 0): 13.0 | PERCENT INCREASE ([2]; cotton line X-2600, 1 lb/acre vs rate 0): 8.0 | SEED COTTON YIELD ([2]; cotton line X-2600): 2145 Pounds/acre | PERCENT INCREASE ([2]; cotton line X-2603, 1 lb/acre vs rate 0): 7.4 | SEED COTTON YIELD ([2]; cotton line X-2603): 2790 Pounds/acre | PERCENT INCREASE ([2]; cotton line X-2606, 1 lb/acre vs rate 0): 19.5 | SEED COTTON YIELD ([2]; cotton line X-2606): 3067 Pounds/acre | PERCENT INCREASE ([2]; cotton line X-2609, 1 lb/acre vs rate 0): −1.1 | SEED COTTON YIELD ([2]; cotton line X-2609): 2301 Pounds/acre | PERCENT INCREASE ([2]; cotton line X-2614, 1 lb/acre vs rate 0): 33.6 | SEED COTTON YIELD ([2]; cotton line X-2614): 2660 Pounds/acre | PERCENT INCREASE ([2]; cotton line X-2615, 1 lb/acre vs rate 0): 15.3 | SEED COTTON YIELD ([2]; cotton line X-2615): 2380 Pounds/acre | PERCENT INCREASE ([2]; cotton line X-2619, 1 lb/acre vs rate 0): 8.7 | SEED COTTON YIELD ([2]; cotton line X-2619): 2235 Pounds/acre

O=C(O)COc1ccc(Cl)cc1 [4-CPA, 4-chlorophenoxyacetic acid]
tolerance of plants to the herbicide [3]: tolerant

O=C(O)COc1cc(Cl)c(Cl)cc1Cl [2,4,5-T, 2,4,5-trichlorophenoxyacetic acid]
tolerance of plants to the herbicide [3]: not to be tolerant

Cc1cc(Cl)ccc1OCC(=O)O [MCPA, 2-methyl-4-chlorophenoxyacetic acid]
tolerance of plants to the herbicide [1]: tolerant
